Test [1] is described as follows: Rancimat accelerated autoxidation of lipids by air, soya bean oil. The note with it: antioxidant power AP = IP(with test solution)/IP(control sample), soya bean oil purified on alumina type N, 0.05% test substance, higher = better. As to the method: (§1) The activity of the example compounds as antioxidants was compared with that of conventional antioxidants. The test system used was accelerated autoxidation of lipids by air with or without antioxidants, using the Rancimat apparatus (Deutsche Lebensmiftel-Rundschau 1974, vol. 70, pp. 57 to 65) (Rancimat is a registered trademark of Metrohm AG, Herisau, Switzerland).
(§2) The example compounds, vitamin C, α-tocopherol and 3,5-ditert-butyl-4-hydroxytoluene were dissolved in methanol or acetone and 100 μl of the respective test solution were added to a prepared oil sample of 3 g. Only solvent was added to a control sample. A constant dry air stream (20 I/h) was blown through the heated oil sample containing the test solution and the volatile oxidation products (principally short-chain fatty acids, such as formic acid or acetic acid) were collected in a receiver containing water. The conductivity of this aqueous solution was measured continuously and documented. The oxidation of (unsaturated) fats proceeds here only very slowly for a period, and then suddenly increases. The time until the increase is termed the induction period (IP).
(§3) From the equation below, the antioxidant power (AP) was obtained:
(§4) AP=IP(with test solution)/IP(control sample).
(§5) The higher the AP, the higher is the antioxidant activity.

Test [2] in a line: Rancimat accelerated autoxidation of lipids by air, squalene. Particulars: antioxidant power AP = IP(with test solution)/IP(control sample), squalene purified on alumina type N, stabilized with 1 ppm α-tocopherol. The method, then:
as §1, §2, §3, §4, §5
The results for the experiment at 80° C. in squalene which was purified on alumina type N and stabilized with 1 ppm of α-tocopherol are shown in Table 7: […]

Test [3] can be described thus: DPPH test for the elimination of free radicals (activity as free-radical scavenger). The note with it: DPPH 100 μmol/l in methanol, absorption at 515 nm; smaller = better. As to the method:
The activity of the exemplary compounds as free-radical scavengers was compared with conventional free-radical scavengers. For this, the DPPH (1,1-diphenyl-2-picryl-hydrazyl) test for the elimination of free-radicals was employed (Lebensm.-Wiss. u. Technol., 1995, vol. 28, pp. 25 to 30).
DPPH was dissolved in methanol to give a concentration of 100 μmol/l. A series of dilutions of the example compounds, vitamin C, α-tocopherol and 3,5-ditert-butyl-4-hydroxytoluene were prepared in methanol. Methanol served as control. 2500 μl of the DPPH solution were mixed with 500 μl of each test solution and the decrease in absorption at 515 nm was read off until the decrease was less than 2% per hour. The activity of the test substances as free-radical scavengers was calculated from the following equation:
Activity as free-radical scavenger (%)=100−(absorption of the test compounds)/absorption of the control)×100.
From activity as free-radical scavenger (%) in a number of dilutions of test compounds, for each test compound the effective relative concentration EC50 (based on the initial concentration of DPPH, EC=c (test compound)/c(DPPH)) of a test compound was calculated at which the free-radical DPPH was eliminated by 50%. The smaller the EC50 values, the better is the free-radical scavenging action.
Background: DPPH is a stable violet radical that fades when it is reduced.

Molecules are shown by their SMILES.

The record followed here is patent US20030069307A1, “2-(3,4-Dihydroxyphenyl)ethyl-substituted carbonic acid derivatives and their use” (priority 2001, published 2003).

On to `Cc1cc(C(C)(C)C)c(O)c(C(C)(C)C)c1` [3,5-Ditert-butyl-4-hydroxytoluene, reference compound], for which the “AP in soya bean oil at 100° C. containing 0.05% of test substance” value in test [1] is on record as 4.8. In test [2], the “AP in squalene at 80° C. containing 0.005% test substance” value amounted to 38. In addition, the “EC50 (effective relative concentration, c(test compound)/c(DPPH), at which the free-radical DPPH was eliminated by 50%)” value in test [3] amounted to 0.24 mol/mol.

Consider `COC(=O)NCCc1ccc(O)c(O)c1` [Example 1, N-[2-(3,4-Dihydroxyphenyl)ethyl]-O-methylurethane], for which, in test [1], the “AP in soya bean oil at 100° C. containing 0.05% of test substance” value worked out at 15.3. Moreover, in test [2], the “AP in squalene at 80° C. containing 0.005% test substance” value came out at 76. Further, in test [3], the “EC50 (effective relative concentration, c(test compound)/c(DPPH), at which the free-radical DPPH was eliminated by 50%)” value came out at 0.27 mol/mol.

For the compound `CC(C)[C@@H]1CC[C@@H](C)C[C@H]1OC(=O)NCCc1ccc(O)c(O)c1` [Example 2, N-[2-(3,4-Dihydroxyphenyl)ethyl]-O-[(1R,3R,4S)-menthyl]urethane], the “AP in soya bean oil at 100° C. containing 0.05% of test substance” value in test [1] turned out to be 7.1. The “AP in squalene at 80° C. containing 0.005% test substance” value in test [2] was 25. Besides, the “EC50 (effective relative concentration, c(test compound)/c(DPPH), at which the free-radical DPPH was eliminated by 50%)” value in test [3] is on record as 0.35 mol/mol.

With `CCCCCCOC(=O)NCCc1ccc(O)c(O)c1` [Example 3, N-[2-(3,4-Dihydroxyphenyl)ethyl]-O-hexylurethane], the “AP in soya bean oil at 100° C. containing 0.05% of test substance” value in test [1] is reported as 9.8. Moreover, the “AP in squalene at 80° C. containing 0.005% test substance” value in test [2] was 46. Besides, in test [3], the “EC50 (effective relative concentration, c(test compound)/c(DPPH), at which the free-radical DPPH was eliminated by 50%)” value was determined as 0.24 mol/mol.

As to `CCCCC(CC)COC(=O)NCCc1ccc(O)c(O)c1` (centres unmarked) [Example 4, N-[2-(3,4-Dihydroxyphenyl)ethyl]-O-(2-ethylhexyl)urethane], the “AP in soya bean oil at 100° C. containing 0.05% of test substance” value in test [1] is 7.6. The “AP in squalene at 80° C. containing 0.005% test substance” value in test [2] was 50. Moreover, the “EC50 (effective relative concentration, c(test compound)/c(DPPH), at which the free-radical DPPH was eliminated by 50%)” value in test [3] was 0.25 mol/mol.

Regarding `CCCCCCNC(=S)NCCc1ccc(O)c(O)c1` [Example 5, N-[2-(3,4-Dihydroxyphenyl)ethyl]-N′-hexylthiourea], in test [1], the “AP in soya bean oil at 100° C. containing 0.05% of test substance” value worked out at 14.4. The “AP in squalene at 80° C. containing 0.005% test substance” value in test [2] stood at 59.

Take `CCCCCCNC(=O)NCCc1ccc(O)c(O)c1` [Example 6, N-[2-(3,4-Dihydroxyphenyl)ethyl]-N′-hexylurea]: the “AP in soya bean oil at 100° C. containing 0.05% of test substance” value in test [1] came out at 26. Also, the “AP in squalene at 80° C. containing 0.005% test substance” value in test [2] worked out at 60. Further, the “EC50 (effective relative concentration, c(test compound)/c(DPPH), at which the free-radical DPPH was eliminated by 50%)” value in test [3] was 0.20 mol/mol.

In the case of `O=C1O[C@H]([C@@H](O)CO)C(O)=C1O` [Vitamin C, reference compound], the “AP in soya bean oil at 100° C. containing 0.05% of test substance” value in test [1] was 1.2. In addition, the “AP in squalene at 80° C. containing 0.005% test substance” value in test [2] turned out to be 0.7. In addition, the “EC50 (effective relative concentration, c(test compound)/c(DPPH), at which the free-radical DPPH was eliminated by 50%)” value in test [3] came out at 0.27 mol/mol.

As for `Cc1c(C)c2c(c(C)c1O)CC[C@@](C)(CCC[C@H](C)CCC[C@H](C)CCCC(C)C)O2` [α-Tocopherol, reference compound], the “AP in soya bean oil at 100° C. containing 0.05% of test substance” value in test [1] is 5.1. In addition, in test [2], the “AP in squalene at 80° C. containing 0.005% test substance” value is reported as 39. Also, the “EC50 (effective relative concentration, c(test compound)/c(DPPH), at which the free-radical DPPH was eliminated by 50%)” value in test [3] is on record as 0.25 mol/mol.
